Results as given in patent publication US9487476B2, “Catechol diethers as potent anti-HIV agents” (priority 2011, dated 2016).
Read-outs that look alike come from different tables or passages of the source.

Assays:
HIV-1 Y181C variant [1] = settings: literature; read-out: reported anti-HIV activity, Y181C; cited from earlier work
[2] = system: HIV-1 K103N/Y181C variant; settings: literature; read-out: reported anti-HIV activity, K103N/Y181C; cited from earlier work
WT HIV-1 (IIIB strain) = assay: Anti-HIV-1 activity, protection of infected MT-2 cells (MTT); assay type: cell-based; settings: for EC50: Human immunodeficiency virus 1, IIIB
[3] = system: HIV-1 variant containing the K103N/Y181C mutations; assay: Anti-HIV-1 activity against double-mutant strain in MT-2 cells (MTT); assay type: cell-based
[4] = system: HIV-1 variant containing the Y181C (Tyr181Cys) mutation; assay: Anti-HIV-1 activity against variant strain in MT-2 cells (MTT); assay type: cell-based
[5] = Cytotoxicity, inhibition of MT-2 cell growth; assay type: cell-based, human; settings: human
WT HIV-1 [6] = settings: literature; read-out: reported anti-HIV activity, WT HIV-1; cited from earlier work
[7] = system: HIV-1 K103N/Y181C variant; settings: Table 5, literature data (ref. 28), MT4 cells; cited from earlier work
WT HIV-1 [8] = settings: Table 5, literature data (ref. 28), MT4 cells; cited from earlier work
HIV-1 Y181C variant [9] = settings: Table 5, literature data (ref. 28), MT4 cells; cited from earlier work
MT4 cells = settings: Table 5, literature data (ref. 28); cited from earlier work
MT-2 human T-cells = assay: Cytotoxicity, inhibition of MT-2 cell growth; assay type: cell-based; settings: human
[10] = Human immunodeficiency virus 1, MT2, read-out: EC50 Y181C
[11] = MT2, read-out: Anti-HIV Activity (EC50)

Cc1cc(C)cc(Oc2c(CSCc3ccco3)c(C)[nH]c(=O)c2I)c1 [Compound 3]
EC50 (HIV-1 Y181C variant [1]): < 10 nM | EC50 [2]: < 10 nM

N#C/C=C/c1cc(Cl)cc(Oc2ccc(Cl)cc2OCCn2ccc(=O)[nH]c2=O)c1 [Compound 42, (E)-3-(3-chloro-5-(4-chloro-2-(2-(2,4-dioxo-3,4-dihydropyrimidin-1(2H)-yl)ethoxy)phenoxy)phenyl)acrylonitrile]
therapeutic index (WT HIV-1 (IIIB strain); CC50 towards human T-cells vs WT EC50): > 180,000 | EC50 (WT HIV-1 (IIIB strain); MT2, read-out: EC50, initial WT assay): 0.024 nM | EC50 (WT HIV-1 (IIIB strain); MT2, running text, side-by-side re-assay, read-out: EC50 against WT HIV-1): 0.055 nM | EC50 ([3]; Human immunodeficiency virus 1, MT2, read-out: EC50 K103N/Y181C): 220 nM | EC50 ([3]; Human immunodeficiency virus 1, MT2, read-out: EC50 K103N/Y181C variant): 220 nM | EC50 [4, 10]: 49 nM | EC50 ([4]; Human immunodeficiency virus 1, MT2, read-out: EC50 Y181C variant): 49 nM | CC50 [5]: 10 µM

CNc1ccc(Oc2cc(Cl)cc(/C=C/C#N)c2)c(OCCn2ccc(=O)[nH]c2=O)c1 [Compound 43, (E)-3-(3-chloro-5-(2-(2-(2,4-dioxo-3,4-dihydropyrimidin-1(2H)-yl)ethoxy)-4-(methylamino)phenoxy)phenyl)acrylonitrile]
EC50 (WT HIV-1 (IIIB strain); MT2, running text, read-out: EC50 against WT HIV-1): 20 nM | EC50 [4, 10]: 2800 nM | CC50 [5]: 30 µM

N#Cc1cc(Cl)cc(Oc2cc(OCc3n[nH]c4ccccc34)ccc2Cl)c1 [Compound 72]
EC50 (WT HIV-1 [6]): 4.7 nM | EC50 (HIV-1 Y181C variant [1]): 13.8 nM | EC50 [2]: 141 nM

N#Cc1cc(Cl)cc(Oc2c(Cl)ccc(Cc3n[nH]c4nnccc34)c2F)c1 [Compound 73]
EC50 (WT HIV-1 [6]): 1 nM | EC50 [2]: 4 nM

Cc1cc2cc(Oc3cc(Cl)ccc3OCCn3ccc(=O)[nH]c3=O)ccc2o1 [JLJ538]
EC50 (WT HIV-1 (IIIB strain); [11]): 25 nM | CC50 [5]: 8 µM

O=c1ccn(CCOc2ccc(Cl)cc2Oc2ccc3occc3c2)c(=O)[nH]1 [JLJ539]
EC50 (WT HIV-1 (IIIB strain); [11]): 800 nM | CC50 [5]: 19 µM

O=c1ccn(CCOc2ccccc2Oc2ccc3[nH]ccc3c2)c(=O)[nH]1 [JLJ547]
EC50 (WT HIV-1 (IIIB strain); [11]): 85 nM | CC50 [5]: 53 µM

Cc1cc2cc(Oc3ccccc3OCCn3ccc(=O)[nH]c3=O)ccn2c1 [JLJ550]
EC50 (WT HIV-1 (IIIB strain); [11]): 50 nM | CC50 [5]: 9 µM

O=c1ccn(CCOc2ccc(Cl)cc2Oc2ccc3ccoc3c2)c(=O)[nH]1 [JLJ552]
EC50 (WT HIV-1 (IIIB strain); [11]): 900 nM | CC50 [5]: 50 µM

N#Cc1cc2cc(Oc3ccccc3OCCn3ccc(=O)[nH]c3=O)ccn2c1 [JLJ555]
EC50 (WT HIV-1 (IIIB strain); [11]): 0.38 nM | CC50 [5]: > 100 µM

O=C1Nc2ccc(Cl)cc2[C@@](C#CC2CC2)(C(F)(F)F)O1 [efavirenz]
EC50 [7]: 37 nM | EC50 (WT HIV-1 [8]): 1.4 nM | EC50 (HIV-1 Y181C variant [9]): 2 nM

Cc1cc(C#N)cc(C)c1Oc1nc(Nc2ccc(C#N)cc2)nc(N)c1Br [etravirine]
EC50 [7]: 4 nM | EC50 (HIV-1 Y181C variant [9]): 7 nM

Cc1cc(/C=C/C#N)cc(C)c1Nc1ccnc(Nc2ccc(C#N)cc2)n1 [rilpivirine, 4-[[4-[[4-[(1E)-2-cyanoethenyl]-2,6-dimethylphenyl]amino]-2-pyrimidinyl]amino]benzonitrile]
EC50 [7]: 1 nM | EC50 (WT HIV-1 [8]): 0.4 nM | CC50 (MT4 cells): 8 µM | CC50 (MT-2 human T-cells): > 1000 nM | EC50 (HIV-1 Y181C variant [9]): 1.3 nM
